Here are results for 21 compounds from patent publication US9877957B2, “Tetrahydroisoquinoline derivatives useful as inhibitors of diacylglyceride O-acyltransferase 2” (Merck Sharp & Dohme Corp., priority 2014, dated 2018).

hDGAT2, sequence (Q96PD7 whole entry): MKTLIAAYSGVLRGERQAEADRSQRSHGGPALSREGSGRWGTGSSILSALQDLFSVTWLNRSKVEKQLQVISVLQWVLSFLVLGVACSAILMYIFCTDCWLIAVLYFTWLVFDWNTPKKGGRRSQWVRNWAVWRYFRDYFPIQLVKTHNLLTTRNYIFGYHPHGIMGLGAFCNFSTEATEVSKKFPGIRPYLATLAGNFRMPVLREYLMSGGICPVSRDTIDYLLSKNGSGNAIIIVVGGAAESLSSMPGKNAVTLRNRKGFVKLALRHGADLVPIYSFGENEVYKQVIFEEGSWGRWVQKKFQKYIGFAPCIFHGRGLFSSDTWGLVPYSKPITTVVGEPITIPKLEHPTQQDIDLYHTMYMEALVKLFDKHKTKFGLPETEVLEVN

The target in the assay is hDGAT2 (Homo sapiens (Human), UniProt Q96PD7). As to the kind of experiment: DGAT2 Enzymatic Activity Assay (triolein formation, LC/MS/MS). The format is biochemical. As to conditions: Sf-9 membrane prep expressing hDGAT2; 25 μM diolein, 10 μM oleoyl-CoA; room temperature; read-out: IC50 values for inhibition of DGAT2. As for the experimental part:
In Vitro DGAT2 ASSAYS and Determination of IC50 Values for DGAT2 Inhibitors
Insect Cell Expression and Membrane Preparation
Sf-9 insect cells were maintained in Grace's insect cell culture medium with 10% heated-inactivated fetal bovine serum, 1% Pluronic F-68 and 0.14 μg/ml Kanamycine sulfate in Erlenmeyer flasks at 28° C. in a shaker incubator. After infection with untagged hDGAT2 baculovirus at multiplicity of infection (MOI) 0.1 for 48 hours, cells were harvested. Cell pellets were suspended in buffer containing 10 mM Tris-HCl (pH 7.5), 1 mM EDTA (pH 8.0), 250 mM sucrose and Complete Protease Inhibitor Cocktail (Roche Diagnostics Corp., Indianapolis, Ill.), and sonicated on ice. Membrane fractions were isolated by ultracentrifugation (100,000× g pellet), resuspended in the same buffer, and frozen (−80° C.) for later use. The protein concentration was determined with the BCA Protein Assay kit (Pierce Biotechnology Inc., Rockford, Ill.). Expression of protein levels was analyzed by immunoblotting with goat polyclonal DGAT2 antibody C-15 and donkey anti-goat IgG HRP (Santa Cruz Biotechnology, Inc., Santa Cruz, Calif.) followed by detection with ECL reagent (GE Healthcare, Piscataway, N.J.).
LC/MS/MS analyses were performed using Thermal Fisher's LX4-TSQ Vantage system. This system consists of an Agilent binary high-performance liquid chromatography (HPLC) pumps and a TSQ Vantage triple quadrupole MS/MS instrument. For each sample, 2 μL samples from the top organic layer of in-plate liquid-liquid extraction were injected onto a Thermo Betabasic C4 column (2.1 mm×20 mm, 5 μm particle size). The samples were then eluted using the following conditions; mobile phase: methanol/water with 0.1% ammonium format=92/8 (v/v), flow rate: 1 mL/min, temperature: 25° C. Data was acquired in positive mode using a heated electrospray ionization (HESI) interface. The operational parameters for the TSQ Vantage MS/MS instrument were a spray voltage of 3000 V, capillary temperature of 280° C., vaporizer temperature 400° C., shealth gas 60 arbitrary unit, Aux gas 40 arbitrary units, S-lens 113 and collision gas 0.16 Pascals. […] (SRM) chromatograms of triolein (Q1: 902.9>Q3:602.3) and internal standard (Q1: 902.9>Q3:602.3) were collected for 40 sec. The peak area was integrated by Xcalibur Quan software. The ratio between the triolein generated in the reaction and spiked in internal standard were used to generate percentage inhibition and IC50 values. Compound percentage inhibition was calculated by the following formula: Inhibition %=1−[(compound response−low control)/(high control−low control)]×100%. Potent compounds were titrated and IC50 were calculated by 4 parameter sigmoidal curve fitting formula.
DGAT2 Enzymatic Activity Assay
DGAT2 activity was determined by measuring the amount of enzymatic product triolein (1,2,3-Tri(cis-9-octadecenoyl)glycerol) using the membrane prep mentioned above. The assay was carried out in deep well 384 plates in a final volume of 40 μL at room temperature. The assay mixture contained the following: assay buffer (100 mM Tris·Cl, pH 7.0, 20 mM MgCl2, 5% ethanol), 25 μM of diolein, 10 μM of oleoyl-CoA and 10 ng/μL of DGAT2 membrane.
Turning to `CC(C)(C)NC(=O)N1CCc2c(-c3cccc(C(F)(F)F)c3)ccc(C(=O)NCc3nccc4ccccc34)c2C1` [Example 19, N^2-(tert-butyl)-N^8-(isoquinolin-1-ylmethyl)-5-(3-(trifluoromethyl)phenyl)-3,4-dihydroisoquinoline-2,8(1H)-dicarboxamide], the half-maximal inhibitory concentration (IC50) was 197 nM.

Regarding `Cn1c(CCNC(=O)c2ccc(-c3cccc(C(F)(F)F)c3)c3c2CN(C(=O)NC(C)(C)C)CC3)nc2ccccc21` [Example 20, N^2-(tert-butyl)-N^8-(2-(1-methyl-1H-benzo[d]imidazol-2-yl)ethyl)-5-(3-(trifluoromethyl)phenyl)-3,4-dihydroisoquinoline-2,8(1H)-dicarboxamide], the half-maximal inhibitory concentration (IC50) is 205 nM.

For the compound `CC(C)(C)NC(=O)N1CCc2c(-c3cccc(OC(F)(F)F)c3)ccc(C(=O)NCc3nccc4ccccc34)c2C1` [Example 22, N^2-(tert-butyl)-N^8-(isoquinolin-1-ylmethyl)-5-(3-(trifluoromethoxy)phenyl)-3,4-dihydroisoquinoline-2,8(1H)-dicarboxamide], the half-maximal inhibitory concentration (IC50) worked out at 235 nM.

On to `CC(C)(C)NC(=O)N1CCc2c(-c3cccc(C(F)(F)F)c3)ccc(C(=O)NCCc3cn4ccccc4n3)c2C1` [Example 23, N^2-(tert-butyl)-N^8-(2-(imidazo[1,2-a]pyridin-2-yl)ethyl)-5-(3-(trifluoromethyl)phenyl)-3,4-dihydroisoquinoline-2,8(1H)-dicarboxamide], for which the IC50 was 244 nM.

Regarding `CC(C)(C)NC(=O)N1CCc2c(-c3cccc(C(F)(F)F)c3)ccc(C(=O)NCc3nccc4cccnc34)c2C1` [Example 24, N^8-((1,7-naphthyridin-8-yl)methyl)-N^2-(tert-butyl)-5-(3-(trifluoromethyl)phenyl)-3,4-dihydroisoquinoline-2,8(1H)-dicarboxamide], the IC50 came out at 265 nM.

For `Cc1nn2cc(CCNC(=O)c3ccc(-c4cccc(C(F)(F)F)c4)c4c3CN(C(=O)NC(C)(C)C)CC4)nc2s1` [Example 25, N^2-(tert-butyl)-N^8-(2-(2-methylimidazo[2,1-b][1,3,4]thiadiazol-6-yl)ethyl)-5-(3-(trifluoromethyl)phenyl)-3,4-dihydroisoquinoline-2,8(1H)-dicarboxamide], the 50% inhibitory concentration (IC50) was found to be 271 nM.

`CC(C)(C)NC(=O)N1CCc2c(-c3cccc(C(F)(F)F)c3)ccc(C(=O)NCc3ccnc4ccccc34)c2C1` [Example 26, N^2-(tert-butyl)-N^8-(quinolin-4-ylmethyl)-5-(3-(trifluoromethyl)phenyl)-3,4-dihydroisoquinoline-2,8(1H)-dicarboxamide]: the IC50 is 292 nM.

Take `CC(C)(C)NC(=O)N1CCc2c(-c3cccc(C(F)(F)F)c3)ccc(C(=O)NCc3conc3C#N)c2C1` [Example 27, N^2-(tert-butyl)-N^8-((3-cyanoisoxazol-4-yl)methyl)-5-(3-(trifluoromethyl)phenyl)-3,4-dihydroisoquinoline-2,8(1H)-dicarboxamide]: the IC50 came out at 314 nM.

For the compound `CC(C)(C)NC(=O)N1CCc2c(-c3cccc(C(F)(F)F)c3)ccc(C(=O)NCCc3cscn3)c2C1` [Example 29, N^2-(tert-butyl)-N^8-(2-(thiazol-4-yl)ethyl)-5-(3-(trifluoromethyl)phenyl)-3,4-dihydroisoquinoline-2,8(1H)-dicarboxamide], the concentration for half-maximal inhibition (IC50) was 329 nM.

Turning to `CC(C)(C)NC(=O)N1CCc2c(-c3cccc(C(F)(F)F)c3)ccc(C(=O)NCc3cnn4ccccc34)c2C1` [Example 30, N^2-(tert-butyl)-N^8-(pyrazolo[1,5-a]pyridin-3-ylmethyl)-5-(3-(trifluoromethyl)phenyl)-3,4-dihydroisoquinoline-2,8(1H)-dicarboxamide], the IC50 was 351 nM.

As to `Cc1cc(C)n(CCNC(=O)c2ccc(-c3cccc(C(F)(F)F)c3)c3c2CN(C(=O)NC(C)(C)C)CC3)n1` [Example 31, N^2-(tert-butyl)-N^8-(2-(3,5-dimethyl-1H-pyrazol-1-yl)ethyl)-5-(3-(trifluoromethyl)phenyl)-3,4-dihydroisoquinoline-2,8(1H)-dicarboxamide], the IC50 came to 505 nM.

Regarding `Cc1sc(-c2ccccc2)nc1CNC(=O)c1ccc(-c2cccc(C(F)(F)F)c2)c2c1CN(C(=O)NC(C)(C)C)CC2` [Example 32, N^2-(tert-butyl)-N^8-((5-methyl-2-phenylthiazol-4-yl)methyl)-5-(3-(trifluoromethyl)phenyl)-3,4-dihydroisoquinoline-2,8(1H)-dicarboxamide], the concentration for half-maximal inhibition (IC50) was found to be 539 nM.

Take `CC(C)(C)NC(=O)N1CCc2c(-c3cccc(C(F)(F)F)c3)ccc(C(=O)NCCn3nnc4ccccc43)c2C1` [Example 34, N^8-(2-(1H-benzo[d][1,2,3]triazol-1-yl)ethyl)-N^2-(tert-butyl)-5-(3-(trifluoromethyl)phenyl)-3,4-dihydroisoquinoline-2,8(1H)-dicarboxamide]: the IC50 worked out at 664 nM.

Consider `CC(C)(C)NC(=O)N1CCc2c(-c3cccc(C(F)(F)F)c3)ccc(C(=O)NCc3n[nH]c4c3CCC4)c2C1` [Example 35, N^2-(tert-butyl)-N^8-((1,4,5,6-tetrahydrocyclopenta[c]pyrazol-3-yl)methyl)-5-(3-(trifluoromethyl)phenyl)-3,4-dihydroisoquinoline-2,8(1H)-dicarboxamide], for which the IC50 was 727 nM.

`CC(C)(C)NC(=O)N1CCc2c(-c3cccc(C(F)(F)F)c3)ccc(C(=O)NCC(c3ccccn3)N3CCOCC3)c2C1` (stereo not drawn) [Example 36, N^2-(tert-butyl)-N^8-(2-morpholino-2-(pyridin-2-yl)ethyl)-5-(3-(trifluoromethyl)phenyl)-3,4-dihydroisoquinoline-2,8(1H)-dicarboxamide]: the IC50 was found to be 737 nM.

Turning to `CC(C)(C)NC(=O)N1CCc2c(-c3cccc(C(F)(F)F)c3)ccc(C(=O)NCCn3nncc3-c3ccccc3)c2C1` [Example 37, N^2-(tert-butyl)-N^8-(2-(5-phenyl-1H-1,2,3-triazol-1-yl)ethyl)-5-(3-(trifluoromethyl)phenyl)-3,4-dihydroisoquinoline-2,8(1H)-dicarboxamide], the 50% inhibitory concentration (IC50) was determined as 739 nM.

As for `Cc1cc(C(F)(F)F)nc(CCNC(=O)c2ccc(-c3cccc(C(F)(F)F)c3)c3c2CN(C(=O)NC(C)(C)C)CC3)n1` [Example 38, N^2-(tert-butyl)-N^8-(2-(4-methyl-6-(trifluoromethyl)pyrimidin-2-yl)ethyl)-5-(3-(trifluoromethyl)phenyl)-3,4-dihydroisoquinoline-2,8(1H)-dicarboxamide], the IC50 was found to be 854 nM.

Turning to `CC(C)(C)NC(=O)N1CCc2c(-c3cccc(C(F)(F)F)c3)ccc(C(=O)NCc3scnc3-c3ccccc3)c2C1` [Example 39, N^2-(tert-butyl)-N^8-((4-phenylthiazol-5-yl)methyl)-5-(3-(trifluoromethyl)phenyl)-3,4-dihydroisoquinoline-2,8(1H)-dicarboxamide], the IC50 was 890 nM.

As for `CC(C)(C)NC(=O)N1CCc2c(-c3cccc(C(F)(F)F)c3)ccc(C(=O)NCCc3ccccc3C(F)(F)F)c2C1` [Example 40, N^2-(tert-butyl)-N^8-(2-(trifluoromethyl)phenethyl)-5-(3-(trifluoromethyl)phenyl)-3,4-dihydroisoquinoline-2,8(1H)-dicarboxamide], the half-inhibitory concentration (IC50) worked out at 905 nM.

Regarding `Cc1nc(C)c(CNC(=O)c2ccc(-c3cccc(C(F)(F)F)c3)c3c2CN(C(=O)NC(C)(C)C)CC3)s1` [Example 41, N^2-(tert-butyl)-N^8-((2,4-dimethylthiazol-5-yl)methyl)-5-(3-(trifluoromethyl)phenyl)-3,4-dihydroisoquinoline-2,8(1H)-dicarboxamide], the IC50 was determined as 907 nM.

In the case of `CC(C)(C)NC(=O)N1CCc2c(-c3cccc(C(F)(F)F)c3)ccc(C(=O)NCCc3ncn[nH]3)c2C1` [Example 42, N^8-(2-(1H-1,2,4-triazol-5-yl)ethyl)-N^2-(tert-butyl)-5-(3-(trifluoromethyl)phenyl)-3,4-dihydroisoquinoline-2,8(1H)-dicarboxamide], the IC50 worked out at 959 nM.

By IC50 is commonly meant the concentration needed to halve the response being measured.
